Data as given in ChEMBL document CHEMBL1142906, “Structure-activity relationships of novel piperazines as antagonists for the melanocortin-4 receptor” (Bioorg Med Chem, 2007).
pIC50: −log10 of the molar value.

What follows are compounds tested against Melanocortin receptor 4 (Homo sapiens, UniProt P32245) (assay: Displacement of [125I]Nle4-D-Phe7-alpha-MSH from human MC4 receptor expressed in COS1 cells).
Assay type: cell-based, COS-1

Sequence of Melanocortin receptor 4 (P32245 whole entry): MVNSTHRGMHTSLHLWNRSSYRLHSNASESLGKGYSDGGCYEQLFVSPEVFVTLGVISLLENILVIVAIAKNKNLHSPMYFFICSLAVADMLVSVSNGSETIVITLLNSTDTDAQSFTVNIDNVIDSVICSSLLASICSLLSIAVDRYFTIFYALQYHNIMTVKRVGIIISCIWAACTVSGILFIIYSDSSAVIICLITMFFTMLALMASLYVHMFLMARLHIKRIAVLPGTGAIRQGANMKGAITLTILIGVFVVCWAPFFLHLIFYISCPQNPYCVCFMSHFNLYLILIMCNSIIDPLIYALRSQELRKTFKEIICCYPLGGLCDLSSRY

| pIC50 | Compound |
| --- | --- |
| 7.27 | CC(C)N1CCN(C(CN2CCN(CCCc3ccccc3-c3ccc(Cl)cc3)CC2)c2ccc(F)cc2)CC1 (racemic) |
| 5.90 | CN1CCN(C(CN2CCN(Cc3ccc4ccccc4c3)CC2)c2ccc(F)cc2)CC1 (racemic) |
| 6.62 | Fc1ccc(C(CN2CCN(CCCCc3cccc4ccccc34)CC2)N2CCN(C3CCCCC3)CC2)cc1 (racemic) |
| 6.80 | CN1CCN(C(CN2CCN(CCCCc3cccc4ccccc34)CC2)c2ccc(Br)cc2)CC1 (racemic) |
| 7.03 | CC(C)N1CCN(C(CN2CCN(CCCc3ccccc3-c3ccc(N(C)C)cc3)CC2)c2ccc(F)cc2)CC1 (racemic) |
| 6.19 | CN1CCN(C(CN2CCN(CCCCc3cccc4ccccc34)CC2)c2cccc(F)c2)CC1 (racemic) |
| 5.64 | CN1CCN(C(CN2CCN(CCCCc3cccc4ccccc34)CC2)c2ccccc2Br)CC1 (racemic) |
| 7.33 | COc1ccc2ccccc2c1CCCCN1CCN(CC(c2ccc(F)cc2)N2CCN(C3CCCC3)CC2)CC1 (racemic) |
| 6.61 | CC(C)N1CCN(C(CN2CCN(CCCc3ccc(-c4ccccc4)cc3)CC2)c2ccc(F)cc2)CC1 (racemic) |
| 7.90 | COc1ccc2ccccc2c1CCCCN1CCN(CC(c2ccc(F)cc2)N2CCN(C(C)C)CC2)CC1 (racemic) |
| 6.66 | CN1CCN(C(CN2CCN(CCCCCc3cccc4ccccc34)CC2)c2ccc(F)cc2)CC1 (racemic) |
| 7.08 | CCC(CC)N1CCN(C(CN2CCN(CCCCc3c(OC)ccc4ccccc34)CC2)c2ccc(F)cc2)CC1 (racemic) |
| 6.23 | CN1CCN(C(CN2CCN(Cc3cccc4ccccc34)CC2)c2ccc(F)cc2)CC1 (racemic) |
| 6.64 | CC(C)N1CCN(C(CN2CCN(CCCc3ccccc3-c3ccc(-c4ccccc4)cc3)CC2)c2ccc(F)cc2)CC1 (racemic) |
| 7.43 | CC(C)N1CCN(C(CN2CCN(CCCc3ccccc3-c3ccccc3F)CC2)c2ccc(F)cc2)CC1 (racemic) |
| 6.68 | CN1CCN(C(CN2CCN(CCCc3cccc4ccccc34)CC2)c2ccc(F)cc2)CC1 (racemic) |
| 6.64 | COc1ccc(CCCCN2CCN(CC(c3ccc(F)cc3)N3CCN(C)CC3)CC2)c2ccccc12 (racemic) |
| 5.73 | CN1CCN(C(CN2CCN(CCc3ccc4ccccc4c3)CC2)c2ccc(F)cc2)CC1 (racemic) |
| 6.58 | CN1CCN(C(CN2CCN(CCCCc3cccc4ccccc34)CC2)c2ccc([N+](=O)[O-])cc2)CC1 (racemic) |
| 5.44 | CN1CCN(C(CN2CCN(CCCCc3cccc4ccccc34)CC2)c2ccc(N)cc2)CC1 (racemic) |
| < 5.00 | Fc1ccc(C(CN2CCN(CCCCc3cccc4ccccc34)CC2)N2CCN(c3ccccc3)CC2)cc1 (racemic) |
| 7.19 | CC(C)N1CCN(C(CN2CCN(CCCCc3ccccc3-c3ccccc3)CC2)c2ccc(F)cc2)CC1 (racemic) |
| 7.38 | Cc1ccc(-c2ccccc2CCCN2CCN(CC(c3ccc(F)cc3)N3CCN(C(C)C)CC3)CC2)cc1 (racemic) |
| 7.74 | COc1ccc2ccccc2c1CCCCN1CCN(CC(c2ccc(F)cc2)N2CCN(C(C)(C)C)CC2)CC1 (racemic) |
| 7.43 | CC(C)N1CCN(C(CN2CCN(CCCCc3c(Br)ccc4ccccc34)CC2)c2ccc(F)cc2)CC1 (racemic) |
| 7.37 | COc1ccc(-c2ccccc2CCCN2CCN(CC(c3ccc(F)cc3)N3CCN(C(C)C)CC3)CC2)cc1 (racemic) |
| 7.07 | CC(C)N1CCN(C(CN2CCN(CCCc3ccccc3-c3ccc(OC(F)(F)F)cc3)CC2)c2ccc(F)cc2)CC1 (racemic) |
| 6.47 | CN1CCN(C(CN2CCN(CCCCCCc3cccc4ccccc34)CC2)c2ccc(F)cc2)CC1 (racemic) |

| pIC50 | Compound |
| --- | --- |
| 6.88 | CN1CCN(C(CN2CCN(CCCCc3cccc4ccccc34)CC2)c2ccc(Cl)cc2)CC1 (racemic) |
| 7.66 | COc1ccc2ccccc2c1CCCCN1CCN(CC(c2ccc(F)cc2)N2CCN(C(C)C)CC2)CC1 (stereo in doubt; (+)-10bg) |
| 6.83 | Fc1ccc(C(CN2CCN(CCCCc3cccc4ccccc34)CC2)N2CCN(C3CC3)CC2)cc1 (racemic) |
| 6.47 | CN1CCN(C(CN2CCN(CCCCc3ccc4ccccc4c3)CC2)c2ccc(F)cc2)CC1 (racemic) |
| 6.93 | CN1CCN(C(CN2CCN(CCCCc3cccc4ccccc34)CC2)c2ccc(F)cc2)CC1 (racemic) |
| 7.66 | CC(C)Oc1ccc2ccccc2c1CCCCN1CCN(CC(c2ccc(F)cc2)N2CCN(C(C)C)CC2)CC1 (racemic) |
| 6.75 | CCCN1CCN(C(CN2CCN(CCCCc3cccc4ccccc34)CC2)c2ccc(F)cc2)CC1 (racemic) |
| 7.00 | CC(C)N1CCN(C(CN2CCN(CCCc3ccccc3-c3ccc(C(C)(C)C)cc3)CC2)c2ccc(F)cc2)CC1 (racemic) |
| 7.14 | CC(C)N1CCN(C(CN2CCN(CCCCc3cccc4ccccc34)CC2)c2ccc(F)cc2)CC1 (racemic) |
| 7.82 | COc1cccc(-c2ccccc2)c1CCCN1CCN(CC(c2ccc(F)cc2)N2CCN(C(C)C)CC2)CC1 (racemic) |
| 8.09 | COc1ccc2ccccc2c1CCCCN1CCN(CC(c2ccc(F)cc2)N2CCN(C(C)C)CC2)CC1 (single isomer, unassigned; (-)) |
| 7.20 | CC(C)N1CCN(C(CN2CCN(CCCc3ccccc3-c3ccc(C(F)(F)F)cc3)CC2)c2ccc(F)cc2)CC1 (racemic) |
| 7.24 | COc1ccc2ccccc2c1CCCCN1CCN(CC(c2ccc(F)cc2)N2CCN(C)CC2)CC1 (racemic) |
| 6.25 | CN1CCN(C(CN2CCN(CCCCc3cccc4ccccc34)CC2)c2cccc(Br)c2)CC1 (racemic) |
| 6.13 | CN1CCN(C(CN2CCN(CCCCc3cccc4ccccc34)CC2)c2ccccc2)CC1 (racemic) |
| 5.92 | CN1CCN(C(CN2CCN(CCCc3ccc4ccccc4c3)CC2)c2ccc(F)cc2)CC1 (racemic) |
| 6.12 | CN1CCN(C(CN2CCN(CCCCc3cccc4ccccc34)CC2)c2ccc(-c3ccccc3)cc2)CC1 (racemic) |
| 6.98 | CCN1CCN(C(CN2CCN(CCCCc3cccc4ccccc34)CC2)c2ccc(F)cc2)CC1 (racemic) |
| 6.25 | CN1CCN(C(CN2CCN(CCc3cccc4ccccc34)CC2)c2ccc(F)cc2)CC1 (racemic) |
| 6.81 | CC(C)N1CCN(C(CN2CCN(CCCc3cccc(-c4ccccc4)c3)CC2)c2ccc(F)cc2)CC1 (racemic) |
| 6.88 | CC(C)N1CCN(C(CN2CCN(CCCCc3c(O)ccc4ccccc34)CC2)c2ccc(F)cc2)CC1 (racemic) |
| 6.52 | Fc1ccc(C(CN2CCN(CCCCc3cccc4ccccc34)CC2)N2CCNCC2)cc1 (racemic) |
| 7.59 | CCOc1ccc2ccccc2c1CCCCN1CCN(CC(c2ccc(F)cc2)N2CCN(C(C)C)CC2)CC1 (racemic) |
| 6.65 | CN1CCN(C(CN2CCN(CCCCc3cccc4ccccc34)CC2)c2ccc(C(F)(F)F)cc2)CC1 (racemic) |
| 6.53 | Cc1ccc(C(CN2CCN(CCCCc3cccc4ccccc34)CC2)N2CCN(C)CC2)cc1 (racemic) |
| 6.06 | COc1ccc(C(CN2CCN(CCCCc3cccc4ccccc34)CC2)N2CCN(C)CC2)cc1 (racemic) |
| 6.73 | CC(C)N1CCN(C(CN2CCN(CCc3ccccc3-c3ccccc3)CC2)c2ccc(F)cc2)CC1 (racemic) |
